Consider twelve compounds from patent publication US9713606B2, “Methods for treating pulmonary emphysema using substituted 2-Aza-bicyclo[2.2.1]heptane-3-carboxylic acid (benzyl-cyano-methyl)-amides inhibitors of cathepsin C” (Boehringer Ingelheim International GmbH, priority 2013, dated 2017).

Where two headings read alike, the source gives them in different places.

A short description of data set [1]: Determination of metabolic stability with human liver microsomes. The class given is in vitro ADME. As to conditions: pooled human liver microsomes, 1 mg/ml protein, 1 μM test compound, 37° C.; for half-life at 1 μM: pH 7.6, read-out: In vitro stability in human liver microsome incubations t½. From the text: Determination of Metabolic Stability with Human Liver Microsomes
For orientation: Microsomes from liver hold many membrane-bound enzymes, among them those of drug oxidation.

Data set [2] has as its system neutrophil elastase activity in U937 cells. Kind of data set: Determination of neutrophil elastase activity in U937 cytosolic lysate preparation after incubation with test compound. In kind it is cell-based, human. As for the experimental part:
Determination of Neutrophil Elastase Activity in U937 Cytosolic Lysate Preparation after Incubation with Test Compound Materials:
Optiplate 384F were purchased from PerkinElmer (Prod. No. #6007270). 24 well Nunclon cell culture plates (No. 142475) and 96 well plates (No. 267245) were from Nunc. Dimethylsulfoxid (DMSO) was from Sigma (Prod. No. D8418). Nonidet-P40 (NP40) was from USBiological (Prod. No. N3500)
Substrate, specific for Neutrophil elastase, was from Bachem (MeOSuc-Ala-Ala-Pro-Val-AMC; Prod. No. I-1270).
Human neutrophil elastase was from Calbiochem (Prod. No. 324681)
Tris-buffer (100 mM Tris; 1M NaCL; pH 7.5)
Tris-buffer+HSA 0.1%; Human Serum Albumin from Calbiochem (Cat#. 126658)
Serine-protease buffer (20 mM Tris; 100 mM NaCL; pH 7.5)+0.1% HSA
Serine protease lysis buffer: 20 mM Tris-HCL; 100 mM NaCl pH 7.5; +0.2% Nonidet-P40;
PBS: phosphate buffered saline, without Ca and Mg, from Gibco
U937 from ECACC (Cat. No. 85011440) cultured in suspension at 37° C. and 5% CO2.
Cell density: 0.2-1 Mio. Cells/ml.
Medium: RPMI1640 GlutaMAX (No. 61870) with 10% FCS from Gibco
Cell Seeding and Treatment:
Compounds in 100% DMSO were diluted in Medium (-FCS) with 10% DMSO and further diluted according to the experiment planned.
20 μl of the compound solution was transferred in the respective wells of the 24 well plate and diluted with 2 ml cell suspension/well containing 1'10^5 cells/ml (final concentration of DMSO=0.1%). Compound dilution factor=100 […]
Frozen lysates were thawn at 37° C. for 10 minutes and stored on ice. Protein content was determined with Bradford protein assay. […]
The increase in fluorescence (Ex360 nm/Em 460 nm) is determined over 30 minutes with a Molecular Device Spectramax M5 Fluorescence Reader. […] The amount of neutrophil elastase (ng/ml) is calculated using the standard curve and the Spectramax software. […] Percent inhibition in the compound-treated lysate samples is calculated relative to the DMSO-treated control-sample (100−(compound-sample*100)/control-sample)
[…] is calculated using Graphpad Prism; nonlinear fitting (log(inhibitor) vs. response—Variable slope).

Data set [3] addresses recombinant human Cathepsin K (Homo sapiens (Human), UniProt P43235). Kind of data set: Inhibition of human Cathepsin K. The class given is biochemical. The conditions noted are these: substrate Z-Gly-Pro-Arg-AMC. From the text: Inhibition of Human Cathepsin K
Materials: Microtiterplates (Optiplate-384 F were purchased from PerkinElmer (Prod. No. 6007270). The substrate Z-Gly-Pro-Arg-AMC was from Biomol (Prod.-No. P-142). L-Cysteine (Prod. No. 168149) was from Sigma. Sodium acetate was from Merck (Prod.-No. 6268.0250), EDTA was from Fluka (Prod.-No. 03680). The inhibitor E-64 was purchased from Sigma (Prod.-No. E3132). The recombinant human Cathepsin K proenzyme was purchased from Biomol (Prod. No. SE-367). All other materials were of highest grade commercially available. […]
5 μL test compound (final concentration 0.1 nM to 100 μM) in aqua bidest (containing 4% DMSO, final DMSO concentration 1%) were mixed with 10 uL of Cathepsin K in assay buffer (final concentration 2 ng/μL) and incubated for 10 min. […] The fluorescence in the wells was determined using a Molecular Devices SpectraMax M5 Fluorescence Reader (Ex 360 nm, Em 460 nm).
Each assay microtiter plate contains wells with vehicle controls (1% DMSO in bidest) as reference for non-inhibited enzyme activity (100% Ctl; high values) and wells with inhibitor (E64 in bidest+1% DMSO, final concentration 1 μM) as controls for background fluorescence (0% Ctl; low values). […]

In data set [4] the target is recombinant human DPPI (Cathepsin C) (Homo sapiens (Human), UniProt P53634). The data set is described as follows: Inhibition of human DPPI (Cathepsin C). In kind it is biochemical. As to conditions: substrate Gly-Arg-AMC. As for the experimental part: Inhibition of Human DPPI (Cathepsin C)
recombinant human DPPI (Cathepsin C), sequence (P53634 231-394): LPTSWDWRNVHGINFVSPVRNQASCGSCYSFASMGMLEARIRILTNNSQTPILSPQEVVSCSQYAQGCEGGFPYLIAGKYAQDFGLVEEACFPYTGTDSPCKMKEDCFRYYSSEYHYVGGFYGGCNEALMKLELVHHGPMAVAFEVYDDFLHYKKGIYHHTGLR
recombinant human DPPI (Cathepsin C), sequence (P53634 395-463): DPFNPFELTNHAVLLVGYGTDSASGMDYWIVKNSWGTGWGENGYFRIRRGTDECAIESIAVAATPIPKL
recombinant human DPPI (Cathepsin C), sequence (P53634 25-134): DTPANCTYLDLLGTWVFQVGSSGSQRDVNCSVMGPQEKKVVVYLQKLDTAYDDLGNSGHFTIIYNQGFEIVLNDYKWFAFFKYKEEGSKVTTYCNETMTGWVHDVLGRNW
Bovine serum albumin (BSA; Prod. No. A3059) and Dithiothreitol (DTT; Prod. No D0632) were from Sigma. […] The DPP1 inhibitor Gly-Phe-DMK was purchased from MP Biomedicals (Prod.-No. 03DK00625). The recombinant human DPPI was purchased from Prozymex. All other materials were of highest grade commercially available.
The following buffers were used: MES buffer: 25 mM MES, 50 mM NaCl, 5 mM DTT, adjusted to pH 6.0, containing 0.1% BSA; TAGZyme Buffer: 20 mM NaH2PO4, 150 mM NaCl adjusted to pH 6.0 with HCl
Then, 5 μL of substrate in MES buffer (final concentration 50 μM) were added. The microtiter plates were then incubated at room temperature for […] Then, the reaction was stopped by adding 10 μL of Gly-Phe-DMK in MES-buffer (final concentration 1 μM).
The analysis of the data was performed by calculating the percentage of fluorescence in the presence of test compound in comparison to the fluorescence of the vehicle control after subtracting the background fluorescence using the following formula: (RFU(sample)−RFU(background))*100/(RFU(control)−RFU(background))
Data from these calculations were used to generate IC50 values for inhibition of DPPI, respectively.

Where [5] appears, read: Homo sapiens, U-937, read-out: Reduction of NE-activity in U937 cells IC50.

recombinant human Cathepsin K, sequence (P43235 115-329): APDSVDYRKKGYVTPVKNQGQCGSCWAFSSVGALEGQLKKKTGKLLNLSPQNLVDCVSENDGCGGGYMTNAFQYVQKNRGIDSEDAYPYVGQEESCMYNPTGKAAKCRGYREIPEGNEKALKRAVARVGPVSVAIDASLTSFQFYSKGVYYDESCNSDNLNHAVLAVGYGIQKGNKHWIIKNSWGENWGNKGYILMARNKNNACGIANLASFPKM

With `CN1C(=O)Cc2ccc(-c3ccc(CC(C#N)NC(=O)[C@H]4N[C@@H]5CC[C@H]4C5)c(F)c3)cc21` (stereo partly drawn) [Example 15], the “In vitro stability in human liver microsome incubations t½” value (shortened to “In vitro stability”) in data set [1] amounted to 2.17 h.

On to `CN1C(=O)Cc2ccc(-c3cc(F)c(C[C@@H](C#N)NC(=O)[C@H]4N[C@@H]5CC[C@H]4C5)cc3F)cc21` [Example 31], for which the half-life at 1 μM in data set [1] was found to be 1.5 h.

On to `N#CC(Cc1ccc(-c2cnn(-c3ccccc3)c2)cc1F)NC(=O)[C@H]1N[C@@H]2CC[C@H]1C2` (stereo partly drawn) [Example 78], for which, in data set [1], the “In vitro stability” value was 2.17 h.

In the case of `N#C[C@H](Cc1ccc(N2CCN(CC3CCOC3)CC2)cc1F)NC(=O)[C@H]1N[C@@H]2CC[C@H]1C2` (stereo partly drawn) [Example 154], the IC50 (commonly the concentration that gives 50% inhibition) in data set [2] (setting [5]) turned out to be 4.6 nM; in data set [3], 4600 nM; in data set [4] it was 13.5 nM. Besides, the half-life at 1 μM in data set [1] is greater than 2.17 h.

Take `N#C[C@H](Cc1ccc(-c2ccc(S(=O)(=O)N3CCOCC3)cc2)cc1F)NC(=O)[C@H]1N[C@@H]2CC[C@H]1C2` [Example 217]: the IC50 in data set [2] (read-out: Reduction of NE-activity in U937 cells IC50) came to 7.5 nM.

As to `CC(C)c1cc(-c2ccc(C[C@@H](C#N)NC(=O)[C@H]3N[C@@H]4CC[C@H]3C4)c(F)c2)ccc1[S+](C)[O-]` (stereo partly drawn) [Example 251], the IC50 in data set [4] was 11.5 nM.

As for `CS(=O)(=O)c1ccc(-c2ccc(C[C@@H](C#N)NC(=O)[C@H]3N[C@@H]4CC[C@H]3C4)c(F)c2)cc1OCC(F)F` [Example 252], the “In vitro stability” value in data set [1] came out at 2.17 h.

Turning to `N#C[C@H](Cc1ccc(N2CCCN3CCCC3C2)cc1F)NC(=O)[C@H]1N[C@@H]2CC[C@H]1C2` (stereo partly drawn) [Example 271], the “In vitro stability” value in data set [1] turned out to be 2.17 h.

For `CS(=O)(=O)c1cc(OCC(F)(F)F)cc(-c2ccc(C[C@@H](C#N)NC(=O)[C@H]3N[C@@H]4CC[C@H]3C4)c(F)c2)c1` [Example 276], the “In vitro stability” value in data set [1] worked out at 2.17 h.

As for `CN1CCCN(S(=O)(=O)c2ccc(-c3ccc(C[C@@H](C#N)NC(=O)[C@H]4N[C@@H]5CC[C@H]4C5)c(F)c3)cc2)CC1` [Example 340], the IC50 in data set [2] (setting [5]) stood at 0.8 nM.

Consider `CN1CCC(N2C(=O)Cc3ccc(-c4ccc(C[C@@H](C#N)NC(=O)[C@H]5N[C@@H]6CC[C@H]5C6)c(F)c4)cc32)CC1` [Example 346], for which, in data set [1], the “In vitro stability” value is greater than 2.17 h.

Take `N#C[C@H](Cc1ccc(N2CC3CCN(C4CCOC4)C3C2)cc1F)NC(=O)[C@H]1N[C@@H]2CC[C@H]1C2` (stereo partly drawn) [Example 348]: the “In vitro stability” value in data set [1] was found to be 2.17 h.
